Key:
[1] = biological target: T1, PLCγ1^wt (Homo sapiens, UniProt P19174, I813T); experiment: Saturation transfer difference (STD) NMR binding; details: STD amplification factor vs ADP concentration; likely an overestimate; read-out: Kd, STD-NMR, H2 resonance
T1 construct: specific activities of PLCγ1^wt and PLCγ2^wt full-length proteins; made in house; host or cells: Escherichia coli T7 Express lysY/Iq
T1 sequence (P19174 1-1291 isoform P19174-2 I813T): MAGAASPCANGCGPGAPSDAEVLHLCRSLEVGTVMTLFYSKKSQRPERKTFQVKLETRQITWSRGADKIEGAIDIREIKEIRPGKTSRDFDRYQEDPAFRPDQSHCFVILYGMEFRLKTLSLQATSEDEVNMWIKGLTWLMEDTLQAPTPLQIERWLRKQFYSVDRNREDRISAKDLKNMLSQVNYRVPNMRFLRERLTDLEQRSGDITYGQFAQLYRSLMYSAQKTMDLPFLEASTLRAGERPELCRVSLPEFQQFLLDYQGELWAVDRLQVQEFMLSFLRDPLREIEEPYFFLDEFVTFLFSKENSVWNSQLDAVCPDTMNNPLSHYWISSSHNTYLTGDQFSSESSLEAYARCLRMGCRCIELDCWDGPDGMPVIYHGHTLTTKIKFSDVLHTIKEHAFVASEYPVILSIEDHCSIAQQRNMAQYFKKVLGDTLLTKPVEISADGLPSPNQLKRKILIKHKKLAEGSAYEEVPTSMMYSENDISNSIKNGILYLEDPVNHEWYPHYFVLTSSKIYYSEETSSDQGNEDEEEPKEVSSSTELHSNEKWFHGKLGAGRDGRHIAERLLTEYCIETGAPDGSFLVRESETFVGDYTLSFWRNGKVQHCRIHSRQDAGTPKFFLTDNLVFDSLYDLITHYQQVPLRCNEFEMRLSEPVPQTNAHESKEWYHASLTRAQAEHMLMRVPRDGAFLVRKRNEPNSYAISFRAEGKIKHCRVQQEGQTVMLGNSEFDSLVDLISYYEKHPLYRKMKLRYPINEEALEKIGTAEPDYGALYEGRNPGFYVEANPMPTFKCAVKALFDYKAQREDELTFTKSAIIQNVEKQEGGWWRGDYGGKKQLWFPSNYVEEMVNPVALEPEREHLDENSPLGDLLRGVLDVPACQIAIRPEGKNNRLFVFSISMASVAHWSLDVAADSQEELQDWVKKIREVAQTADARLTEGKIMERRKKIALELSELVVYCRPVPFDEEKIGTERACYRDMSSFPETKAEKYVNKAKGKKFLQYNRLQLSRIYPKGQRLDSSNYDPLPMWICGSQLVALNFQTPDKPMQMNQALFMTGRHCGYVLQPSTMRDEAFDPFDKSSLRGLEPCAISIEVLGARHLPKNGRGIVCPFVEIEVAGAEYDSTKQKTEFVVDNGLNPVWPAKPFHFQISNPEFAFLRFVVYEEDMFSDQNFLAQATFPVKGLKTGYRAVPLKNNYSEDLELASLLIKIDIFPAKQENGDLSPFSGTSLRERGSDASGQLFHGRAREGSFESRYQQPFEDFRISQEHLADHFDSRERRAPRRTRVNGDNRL
Description: Protein was buffer exchanged into phosphate buffered saline (pH 7.5) prepared in deuterium oxide. A 10 mM stock of ultrapure ADP was purchased from Promega. NMR spectra were acquired at 293 K in a Bruker Avance Neo 600 MHz spectrometer equipped with QCI-F cryoprobe and operating Topspin 4.2. Saturation transfer difference NMR experiments (stddiffesgp.3) were acquired with 2 s saturation at 0.75 and 50 ppm using 50 ms Gaussian pulses. For the determination of Kd, ADP was added to the protein at ligand excesses from 5- to 100-fold. The protein concentration was 10 µM. STD amplification factors, AF=L0/P0⋅Iref−Isat/Iref , were measured and fitted to a hyperbolic dose-response model to determine the dissociation constant for the protein/ADP interaction.

[2] = tested on: PLCγ1^S345F; experiment: PLC activity assay 1 (A1), PLCγ1 S345F variant; format: biochemical, human
Description: The effect of nucleotide inhibition on PLC activity was measured using either a membrane-based assay with the fluorescent substrate (XY-69) incorporated into liposomes or using a small soluble substrate, Aldol 518 myo-inositol-1-phosphate (Aldol). Both methods utilised the same PLC assay buffer [20 mM Hepes-KOH, 70 mM KCl, 3 mM EGTA, 2.97 mM CaCl2, 2 mM TCEP and fatty acid-free bovine serum albumin (FAF-BSA; 50 μg/ml) (pH 7.5)]. Both assays were performed in low volume black 384-well plates (Greiner Bio-One), were composed of a final assay volume of 20 μl and were monitored in a Clariostar plate reader (BMG Labtech). […] The excitation and emission wavelengths were 588–15 and 642–20, respectively.
A CLARIOstar plate reader (BMG Labtech) was used to measure the production of the fluorescent product. The excitation and emission wavelengths were 485–15 and 520–20, respectively. Each experiment was performed in at least triplicate; in many cases, nine-fold replicates were generated. The enzyme progress curves were plotted for each concentration of nucleotide using Graphpad Prism software. The initial linear rate of product generation was calculated and converted to a % inhibition when compared with the rate of PLC activity in the absence of nucleotide. […]

[3] = biological target: T1, PLCγ1^wt; experiment: Assay 1 (A1) with 10% nickel lipids (His-tagged PLCγ1 immobilised on liposomes); format: biochemical; details: 10% Ni-lipids vs control
From the text: The standard liposome components were designed to mimic a typical plasma membrane composition: 49% PE (brain or synthetic), 1% phosphatidylinositol 4,5-bisphosphate (PIP2), 20% brain phosphatidylserine (PS), 15% phosphatidylcholine (PC), 10% cholesterol and 5% sphingomyelin. The nickel liposome mix consisted of 39% PE (brain or synthetic), 1% PIP2, 20% brain PS, 15% PC, 10% cholesterol, 10% nickel lipid and 5% sphingomyelin.
A CLARIOstar plate reader (BMG Labtech) was used to measure the production of the fluorescent product. The excitation and emission wavelengths were 485–15 and 520–20, respectively. Each experiment was performed in at least triplicate; in many cases, nine-fold replicates were generated. The enzyme progress curves were plotted for each concentration of nucleotide using Graphpad Prism software. The initial linear rate of product generation was calculated and converted to a % inhibition when compared with the rate of PLC activity in the absence of nucleotide. These % inhibition values were plotted against the logarithm of the nucleotide concentration in Graphpad Prism and the data fitted with the function (Inhibitor) vs. response–variable slope (four parameters). The resultant fit yielded the IC50 values for the nucleotide inhibition.
The standard XY-69 assay format outlined above was repeated with the addition of 10% nickel lipids in the liposome mixture. […]

Structure (SMILES)	Kd [1]	IC50 relative to PLCγ1^wt (fold higher) [2]	effect of immobilisation to liposomes on inhibition of PLC activity [3]
Nc1ncnc2c1ncn2[C@@H]1O[C@H](COP(=O)(O)OP(=O)(O)O)[C@@H](O)[C@H]1O [ADP]	~196 µM	5–7 fold	–
Nc1ncnc2c1ncn2[C@@H]1O[C@H](COP(=O)(O)OP(=O)(O)OP(=O)(O)O)[C@@H](O)[C@H]1O [ATP]	–	–	prevented or, at higher concentrations, reduced inhibition

Reference: publication PMC12687421, “Characterisation of an allosteric site in PLCγ enzymes and implications for development of their specific inhibitors” (Biochemical Journal, 2025)
